Reference: patent publication US12012417B2, “N-substituted tetrahydrothienopyridine derivatives and uses thereof” (NOVARTIS AG, priority 2018, dated 2024)
pEC50: −log10 of the molar value.

Assays:
[1] = test system: Dengue 1 virus MY97-10245; test: High-content imaging cell-based flavivirus immunodetection (HCl-CFI) assay, Dengue 1; settings: for pEC50: Dengue virus, A549, 48 h, read-out: Dengue 1 virus MY97-10245 in A549 using HCl [Inhibitor/IC50] Qualified AC50
[2] = test system: Dengue 4 virus MY01-22713; test: High-content imaging cell-based flavivirus immunodetection (HCl-CFI) assay, Dengue 4; settings: for pEC50: Dengue virus, A549, 48 h, read-out: Dengue 4 virus MY01-22713 in A549 using HCl [Inhibitor/IC50] Qualified AC50, A549 cells, 48 h, viral E protein expression
[3] = test system: Dengue 2 virus MY97-10340; test: High-content imaging cell-based flavivirus immunodetection (HCl-CFI) assay, Dengue 2; settings: for pEC50: Dengue virus, A549, 48 h, read-out: Dengue 2 virus MY97-10340 in A549 using HCl [Inhibitor/IC50] Qualified AC50, A549 cells, MOI 0.3, 48 h, viral E protein expression
Outline: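 A549 cells infected at MOI 0.3, treated with 3-fold, 10-point compound dilutions for 48 h. After paraformaldehyde fixation, viral E protein immunostained with 4G2 antibody and nuclei counterstained; imaged by high-content imaging. EC50 = concentration reducing E protein expression by 50%, from dose-response curves.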

[4] = test system: DENV-2 (strain TSV01); test: Antiviral in vivo efficacy in dengue mouse model; settings: oral gavage, 3 consecutive days, AG129 mice, qRT-PCR
Experimental: Antiviral In Vivo Efficacy in Dengue Mouse Model
AG129 mice (lacking IFN-α/β and IFN-γ receptors, (Schul, W. et al. 2007. J. Infect. Dis., 195, 665-74)) was obtained from Biological Resource Center (BRC), Singapore. Male and female AG129 mice aged 8 to 14 weeks (weighed 20-30 grams, n=6 per group) were used. Infection of DENV-2 (strain TSV01) was given intraperitoneally (500 μL, 1.4×10^7 pfu/mL). The DENV-2 strain TSVO1 was used in the mouse model and was propagated in C6/36 mosquito cells. Compounds were formulated (% w/w) in either 0.5% methylcellulose, 0.5% Tween and 99.0% deionized water or 20% polyethylene glycol (PEG300), 10% Cremophor RH40, and 70% 100 mM pH 3 citrate buffer (% v/v). Compounds were dosed immediately after infection through oral gavage for 3 consecutive days. Terminal blood sample (anticoagulant: K2EDTA) was obtained for viremia read-out by qRT-PCR as previously described (Santiago, G. A., et al. 2013. PLoS Negl. Trop. Dis., 7, e2311).

[5] = test system: Dengue 3 virus MY05-34640-WT-C6/36; test: High-content imaging cell-based flavivirus immunodetection (HCl-CFI) assay, Dengue 3; settings: for pEC50: Dengue virus, A549, 48 h, read-out: Dengue 3 virus MY05-34640-WT-C6/36 in A549 using HCl [Inhibitor/IC50] Qualified AC50
[6] = A549 cells, 48 h, viral E protein expression

## CC1Cc2sc(NC(=O)Cc3ccc(S(N)(=O)=O)cc3)c(C#N)c2CN1Cc1cccc(F)c1 (stereo not shown) [Example 53, N-(3-cyano-5-(3-fluorobenzyl)-6-methyl-4,5,6,7-tetrahydrothieno[3,2-c]pyridin-2-yl)-2-(4-sulfamoylphenyl)acetamide]
[1]
  pEC50: 6.00 to 7.00
[2]
  pEC50: > 7.00
[3]
  pEC50: > 7.00
[4]; 30 mg/kg b.i.d.
  Log DENV-2 viremia reduction: 0.80 Log
[4]; 100 mg/kg b.i.d.
  Log DENV-2 viremia reduction: 1.78 Log
[4]; 100 mg/kg q.d.
  Log DENV-2 viremia reduction: 1.06 Log
[5]
  pEC50: > 7.00

## CC1(C)Cc2sc(NC(=O)Cc3ccc(S(N)(=O)=O)cc3)c(C#N)c2CN1CC1CC(F)(F)C1 [Example 77, N-(3-cyano-5-((3,3-difluorocyclobutyl)methyl)-6,6-dimethyl-4,5,6,7-tetrahydrothieno[3,2-c]pyridin-2-yl)-2-(4-sulfamoylphenyl)acetamide]
[1]
  pEC50: 6.00 to 7.00
[2]
  pEC50: > 7.00
[3]
  pEC50: > 7.00
[4]; 30 mg/kg b.i.d.
  Log DENV-2 viremia reduction: 0.62 Log
[5]
  pEC50: > 7.00

## COc1cc(CC(=O)Nc2sc3c(c2C#N)CN(CC2CCCCC2)CC3)ccc1S(N)(=O)=O [Example 83, N-(3-cyano-5-(cyclohexylmethyl)-4,5,6,7-tetrahydrothieno[3,2-c]pyridin-2-yl)-2-(3-methoxy-4-sulfamoylphenyl)acetamide]
[4]; 30 mg/kg b.i.d.
  Log DENV-2 viremia reduction: 0.60 Log
[4]; 100 mg/kg q.d.
  Log DENV-2 viremia reduction: 0.94 Log

## N#Cc1c(NC(=O)Cc2ccc(S(N)(=O)=O)cc2)sc2c1CCN(Cc1cccc(F)c1)C2 [Example 100, N-(3-cyano-6-(3-fluorobenzyl)-4,5,6,7-tetrahydrothieno[2,3-c]pyridin-2-yl)-2-(4-sulfamoylphenyl)acetamide]
[4]; 100 mg/kg b.i.d.
  Log DENV-2 viremia reduction: 1.50 Log

## N#Cc1c(NC(=O)Cc2ccc(S(N)(=O)=O)cc2)sc2c1CCN(Cc1c(Cl)cccc1Cl)C2 [Example 112, N-(3-cyano-6-(2,6-dichlorobenzyl)-4,5,6,7-tetrahydrothieno[2,3-c]pyridin-2-yl)-2-(4-sulfamoylphenyl)acetamide]
[1]
  pEC50: < 6.00
[2]
  pEC50: > 7.00
[3]
  pEC50: 6.00 to 7.00
[5]
  pEC50: 6.00 to 7.00

## N#Cc1c(NC(=O)Cc2ccc(S(N)(=O)=O)cc2)sc2c1CCN(Cc1cc(F)ccc1F)C2 [Example 113, N-(3-cyano-6-(2,5-difluorobenzyl)-4,5,6,7-tetrahydrothieno[2,3-c]pyridin-2-yl)-2-(4-sulfamoylphenyl)acetamide]
[1]
  pEC50: 6.00 to 7.00
[2]
  pEC50: > 7.00
[3]
  pEC50: > 7.00
[5]
  pEC50: > 7.00

## N#Cc1c(NC(=O)Cc2ccc(S(N)(=O)=O)cc2)sc2c1CCN(Cc1ccccc1Cl)C2 [Example 114, N-(6-(2-chlorobenzyl)-3-cyano-4,5,6,7-tetrahydrothieno[2,3-c]pyridin-2-yl)-2-(4-sulfamoylphenyl)acetamide]
[1]
  pEC50: 6.00 to 7.00
[2]
  pEC50: > 7.00
[3]
  pEC50: 6.00 to 7.00
[5]
  pEC50: 6.00 to 7.00

## Cc1cccc(CN2CCc3c(sc(NC(=O)Cc4ccc(S(N)(=O)=O)cc4)c3C#N)C2)c1F [Example 115, N-(3-cyano-6-(2-fluoro-3-methylbenzyl)-4,5,6,7-tetrahydrothieno[2,3-c]pyridin-2-yl)-2-(4-sulfamoylphenyl)acetamide]
[1]
  pEC50: 6.00 to 7.00
[2]
  pEC50: > 7.00
[3]
  pEC50: > 7.00
[5]
  pEC50: > 7.00

## N#Cc1c(NC(=O)Cc2ccc(S(N)(=O)=O)cc2)sc2c1CCN(Cc1c(F)cccc1F)C2 [Example 116, N-(3-cyano-6-(2,6-difluorobenzyl)-4,5,6,7-tetrahydrothieno[2,3-c]pyridin-2-yl)-2-(4-sulfamoylphenyl)acetamide]
[1]
  pEC50: 6.00 to 7.00
[2]
  pEC50: > 7.00
[3]
  pEC50: > 7.00
[5]
  pEC50: > 7.00

## CS(=O)(=O)c1ccc(CC(=O)Nc2sc3c(c2C#N)CCN(Cc2ccc(F)c(F)c2)C3)cc1 [Example 117, N-(3-cyano-6-(3,4-difluorobenzyl)-4,5,6,7-tetrahydrothieno[2,3-c]pyridin-2-yl)-2-(4-(methylsulfonyl)phenyl)acetamide]
[1]
  pEC50: 6.00 to 7.00
[2]
  pEC50: > 7.00
[3]
  pEC50: 6.00 to 7.00
[5]
  pEC50: 6.00 to 7.00

## Cc1cc(C)cc(CN2CCc3c(sc(NC(=O)Cc4ccc(S(C)(=O)=O)cc4)c3C#N)C2)c1 [Example 118, N-(3-cyano-6-(3,5-dimethylbenzyl)-4,5,6,7-tetrahydrothieno[2,3-c]pyridin-2-yl)-2-(4-(methylsulfonyl)phenyl)acetamide]
[1]
  pEC50: < 6.00
[2]
  pEC50: 6.00 to 7.00
[3]
  pEC50: 6.00 to 7.00
[5]
  pEC50: 6.00 to 7.00

## CS(=O)(=O)c1ccc(CC(=O)Nc2sc3c(c2C#N)CCN(Cc2cccc(F)c2)C3)cc1 [Example 119, N-(3-cyano-6-(3-fluorobenzyl)-4,5,6,7-tetrahydrothieno[2,3-c]pyridin-2-yl)-2-(4-(methylsulfonyl)phenyl)acetamide]
[1]
  pEC50: < 6.00
[2]
  pEC50: > 7.00
[3]
  pEC50: 6.00 to 7.00
[5]
  pEC50: > 7.00

## COC(=O)c1cccc(CN2CCc3c(sc(NC(=O)Cc4ccc(S(C)(=O)=O)cc4)c3C#N)C2)c1 [Example 120, methyl 3-((3-cyano-2-(2-(4-(methylsulfonyl)phenyl)acetamido)-4,7-dihydrothieno[2,3-c]pyridin-6(51-1)-yl)methyl)benzoate]
[1]
  pEC50: < 6.00
[2]
  pEC50: > 7.00
[3]
  pEC50: 6.00 to 7.00
[5]
  pEC50: 6.00 to 7.00

## CS(=O)(=O)c1ccc(CC(=O)Nc2sc3c(c2C#N)CCN(Cc2cc(Cl)ccc2Cl)C3)cc1 [Example 121, N-(3-cyano-6-(2,5-dichlorobenzyl)-4,5,6,7-tetrahydrothieno[2,3-c]pyridin-2-yl)-2-(4-(methylsulfonyl)phenyl)acetamide]
[1]
  pEC50: < 6.00
[2]
  pEC50: 6.00 to 7.00
[3]
  pEC50: 6.00 to 7.00
[5]
  pEC50: < 6.00

## CC1Cc2c(sc(NC(=O)Cc3ccc(S(N)(=O)=O)cc3)c2C#N)CN1Cc1cccc(F)c1 (stereo not shown) [Example 122, N-(3-cyano-6-(3-fluorobenzyl)-5-methyl-4,5,6,7-tetrahydrothieno[2,3-c]pyridin-2-yl)-2-(4-sulfamoylphenyl)acetamide]
[1]
  pEC50: < 6.00
[2]
  pEC50: > 7.00
[3]
  pEC50: > 7.00
[5]
  pEC50: 6.00 to 7.00

## CC1Cc2c(sc(NC(=O)Cc3ccc(S(N)(=O)=O)cc3)c2C#N)CN1Cc1cccc(F)c1 (stereo not shown) [Example 123, N-(3-cyano-6-(3-fluorobenzyl)-5-methyl-4,5,6,7-tetrahydrothieno[2,3-c]pyridin-2-yl)-2-(4-sulfamoylphenyl)acetamide]
[1]; [6]
  Dengue 1 virus MY97-10245 in A549 using HCl [Inhibitor/IC50] Qualified AC50: + (±≥1 μM)
[2]; [6]
  Dengue 4 virus MY01-22713 in A549 using HCl [Inhibitor/IC50] Qualified AC50: ++ (1 μM>++≥0.1 μM)
[3]; A549 cells, MOI 0.3, 48 h, viral E protein expression
  Dengue 2 virus MY97-10340 in A549 using HCl [Inhibitor/IC50] Qualified AC50: ++ (1 μM>++≥0.1 μM)
[5]; [6]
  Dengue 3 virus MY05-34640-WT-C6/36 in A549 using HCl [Inhibitor/IC50] Qualified AC50: ++ (1 μM>++≥0.1 μM)

## N#Cc1c(NC(=O)Cc2ccc(S(N)(=O)=O)cc2)sc2c1CCN(Cc1cccc(F)c1)CC2 [Example 124, N-(3-cyano-6-(3-fluorobenzyl)-5,6,7,8-tetrahydro-4H-thieno[2,3-d]azepin-2-yl)-2-(4-sulfamoylphenyl)acetamide]
[1]
  pEC50: 6.00 to 7.00
[2]
  pEC50: > 7.00
[3]
  pEC50: 6.00 to 7.00
[5]
  pEC50: > 7.00

## N#Cc1c(NC(=O)Cc2ccc(S(N)(=O)=O)cc2)sc2c1CCN(CC1CCCCC1)CC2 [Example 125, N-(3-cyano-6-(cyclohexylmethyl)-5,6,7,8-tetrahydro-4H-thieno[2,3-d]azepin-2-yl)-2-(4-sulfamoylphenyl)acetamide]
[1]
  pEC50: < 6.00
[2]
  pEC50: 6.00 to 7.00
[3]
  pEC50: 6.00 to 7.00
[5]
  pEC50: 6.00 to 7.00

## N#Cc1c(NC(=O)Cc2ccc(S(N)(=O)=O)cc2)sc2c1CCCN(Cc1cccc(F)c1)C2 [Example 126, N-(3-cyano-7-(3-fluorobenzyl)-5,6,7,8-tetrahydro-4H-thieno[2,3-c]azepin-2-yl)-2-(4-sulfamoylphenyl)acetamide]
[1]
  pEC50: 6.00 to 7.00
[2]
  pEC50: > 7.00
[3]
  pEC50: 6.00 to 7.00
[5]
  pEC50: 6.00 to 7.00

## N#Cc1c(NC(=O)Cc2ccc(S(N)(=O)=O)cc2)sc2c1CCCN(CC1CCCCC1)C2 [Example 127, N-(3-cyano-7-(cyclohexylmethyl)-5,6,7,8-tetrahydro-4H-thieno[2,3-c]azepin-2-yl)-2-(4-sulfamoylphenyl)acetamide]
[1]
  pEC50: < 6.00
[2]
  pEC50: 6.00 to 7.00
[3]
  pEC50: 6.00 to 7.00
[5]
  pEC50: 6.00 to 7.00
